# The source made the active and inactive calls. The calls are words filed in the database; no cut-off is given here.
# Test system: not listed separately
# Experiment: Hydrophobicity, log K of the compound by HPLC
# Assay type: physicochemical
row,Compound,log K
1,O=[N+]([O-])/C=C1\NCCN1Cc1ccc(Cl)nc1,0.05
2,CN/C(=N\[N+](=O)[O-])NCc1cnc(Cl)s1 [CLOTHIANIDINE],0.17
3,C/N=C(\NCc1ccc(Cl)nc1)N[N+](=O)[O-],0.11
4,O=[N+]([O-])/N=C1\NCCN1Cc1cnc(Cl)s1 [IMIDACLOTHIZ],0.28
5,CN/C(=C\[N+](=O)[O-])NCc1cnc(Cl)s1,0.14
6,O=[N+]([O-])/C=C1\NCCN1Cc1cnc(Cl)s1,0.03
7,O=[N+]([O-])NC1=NCCN1Cc1ccc(Cl)nc1 [IMIDACLOPRID],0.23
8,CN/C(=C\[N+](=O)[O-])NCc1ccc(Cl)nc1,0.16

# Test system: Periplaneta americana
# Experiment: Insecticidal activity against Periplaneta americana (American cockroach) assessed as killing measured per insect at 25 to 28 degC for 24 hr in presence of piperonyl butoxide
# Assay type: functional
row,Compound,pMLD
1,O=[N+]([O-])/N=C1\NCCN1Cc1ccc(Cl)nc1 [IMIDACLOPRID],10.4
2,O=[N+]([O-])/C=C1\NCCN1Cc1ccc(Cl)nc1,10.1
3,CN/C(=N\[N+](=O)[O-])NCc1cnc(Cl)s1 [CLOTHIANIDINE],10.2
4,C/N=C(\NCc1ccc(Cl)nc1)N[N+](=O)[O-],9.52
5,O=[N+]([O-])/N=C1\NCCN1Cc1cnc(Cl)s1 [IMIDACLOTHIZ],9.07
6,CN/C(=C\[N+](=O)[O-])NCc1cnc(Cl)s1,10.2
7,O=[N+]([O-])/C=C1\NCCN1Cc1cnc(Cl)s1,10.2
8,CC(=O)OCC[N+](C)(C)C [ACETYLCHOLINE],inactive
9,CN/C(=C\[N+](=O)[O-])NCc1ccc(Cl)nc1,9.22

# Target: T1, Nicotinic acetylcholine receptor alpha8 subunit (Periplaneta americana) (UniProt H6TY12)
# T1 sequence (whole entry): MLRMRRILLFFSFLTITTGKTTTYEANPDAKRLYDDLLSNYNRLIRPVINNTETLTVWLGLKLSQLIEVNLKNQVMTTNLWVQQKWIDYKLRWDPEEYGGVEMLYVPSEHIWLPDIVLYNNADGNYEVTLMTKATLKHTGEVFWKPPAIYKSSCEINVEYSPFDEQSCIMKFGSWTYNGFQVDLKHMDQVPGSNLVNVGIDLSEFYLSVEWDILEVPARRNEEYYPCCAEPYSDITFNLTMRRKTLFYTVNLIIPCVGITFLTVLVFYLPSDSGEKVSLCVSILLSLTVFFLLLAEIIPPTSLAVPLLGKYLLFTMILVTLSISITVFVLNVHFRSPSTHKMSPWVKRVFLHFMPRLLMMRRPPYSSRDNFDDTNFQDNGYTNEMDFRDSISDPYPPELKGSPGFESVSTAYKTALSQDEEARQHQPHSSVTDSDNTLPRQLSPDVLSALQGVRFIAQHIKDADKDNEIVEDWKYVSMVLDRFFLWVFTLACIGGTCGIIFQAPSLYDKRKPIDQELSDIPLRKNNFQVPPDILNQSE
# Experiment: Agonist activity at Periplaneta americana (American cockroach) nAChR in terminal abdominal ganglion assessed as assessed as inward current by tight-seal whole cell patch clamp method relative to 100 uM ACh
# Assay type: tissue-based
row,Compound,Imax
1,O=[N+]([O-])/N=C1\NCCN1Cc1ccc(Cl)nc1 [IMIDACLOPRID],0.11
2,O=[N+]([O-])/C=C1\NCCN1Cc1ccc(Cl)nc1,0.24
3,CN/C(=N\[N+](=O)[O-])NCc1cnc(Cl)s1 [CLOTHIANIDINE],0.68
4,C/N=C(\NCc1ccc(Cl)nc1)N[N+](=O)[O-],0.31
5,O=[N+]([O-])/N=C1\NCCN1Cc1cnc(Cl)s1 [IMIDACLOTHIZ],0.3
6,CN/C(=C\[N+](=O)[O-])NCc1cnc(Cl)s1,0.47
7,O=[N+]([O-])/C=C1\NCCN1Cc1cnc(Cl)s1,0.3
8,CN/C(=C\[N+](=O)[O-])NCc1ccc(Cl)nc1,0.44

# Target: T2, Nicotinic acetylcholine receptor alpha8 subunit (Periplaneta americana, UniProt H6TY12)
# T2 sequence (H6TY12 whole entry): T1 sequence (whole entry)
# Experiment: Agonist activity at Periplaneta americana (American cockroach) nAChR in terminal abdominal ganglion assessed as assessed as inward current by tight-seal whole cell patch clamp method
# Assay type: tissue-based
row,Compound,EC50 [nM]
1,O=[N+]([O-])/C=C1\NCCN1Cc1ccc(Cl)nc1,72.4
2,CN/C(=N\[N+](=O)[O-])NCc1cnc(Cl)s1 [CLOTHIANIDINE],1580
3,C/N=C(\NCc1ccc(Cl)nc1)N[N+](=O)[O-],1860
4,O=[N+]([O-])/N=C1\NCCN1Cc1cnc(Cl)s1 [IMIDACLOTHIZ],1580
5,CN/C(=C\[N+](=O)[O-])NCc1cnc(Cl)s1,19.5
6,O=[N+]([O-])/C=C1\NCCN1Cc1cnc(Cl)s1,15.8
7,O=[N+]([O-])NC1=NCCN1Cc1ccc(Cl)nc1 [IMIDACLOPRID],1320
8,CC(=O)OCC[N+](C)(C)C [ACETYLCHOLINE],11500
9,CN/C(=C\[N+](=O)[O-])NCc1ccc(Cl)nc1,38.9

# Source: ChEMBL document CHEMBL3045902, “Actions of imidacloprid, clothianidin and related neonicotinoids on nicotinic acetylcholine receptors of American cockroach neurons and their relationships with insecticidal potency” (J Pestic Sci, 2006)
